Values quoted from earlier work, collected in patent publication US20120016347A1, “Seroma Control for Surgical Patients” (priority 2010, published 2012).

System: pleural effusions
Settings: Patz (Chest, 1998)

| Compound | Success rate in completely or partially controlling pleural effusions |
| --- | --- |
| C[C@H]1c2cccc(O)c2C(O)=C2C(=O)[C@]3(O)C(O)=C(C(N)=O)C(=O)[C@@H](N(C)C)[C@@H]3[C@@H](O)[C@@H]21 [doxyclycline, doxycycline] | 79% |
| bleomycin | 72% |
